biological target: T1, DDX1 (Homo sapiens, UniProt Q92499); assay: DDX1 helicase activity inhibition; format: biochemical; conditions: not given
T1 sequence (Q92499 1-740): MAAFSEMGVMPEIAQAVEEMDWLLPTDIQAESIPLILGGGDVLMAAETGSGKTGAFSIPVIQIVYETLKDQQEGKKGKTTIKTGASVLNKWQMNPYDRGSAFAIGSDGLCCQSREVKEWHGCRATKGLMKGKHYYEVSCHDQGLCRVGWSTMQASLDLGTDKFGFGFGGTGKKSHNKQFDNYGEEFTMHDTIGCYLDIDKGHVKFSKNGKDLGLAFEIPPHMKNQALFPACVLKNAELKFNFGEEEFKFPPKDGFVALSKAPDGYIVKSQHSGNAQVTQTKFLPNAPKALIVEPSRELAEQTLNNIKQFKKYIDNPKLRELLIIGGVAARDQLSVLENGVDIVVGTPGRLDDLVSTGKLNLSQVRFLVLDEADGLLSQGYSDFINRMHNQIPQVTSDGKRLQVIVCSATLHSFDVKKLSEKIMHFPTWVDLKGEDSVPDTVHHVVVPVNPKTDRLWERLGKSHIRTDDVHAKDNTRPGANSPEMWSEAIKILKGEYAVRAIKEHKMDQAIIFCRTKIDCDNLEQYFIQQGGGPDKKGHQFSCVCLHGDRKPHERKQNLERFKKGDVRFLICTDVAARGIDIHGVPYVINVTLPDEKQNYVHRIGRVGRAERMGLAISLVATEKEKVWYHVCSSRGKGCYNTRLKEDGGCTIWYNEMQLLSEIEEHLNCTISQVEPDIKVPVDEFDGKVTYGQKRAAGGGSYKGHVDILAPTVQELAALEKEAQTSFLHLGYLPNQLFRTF
Text: To confirm the proposed mechanism of action and the selectivity of our compounds for the helicase binding site, we tested the capability of BA103 to inhibit the ATPase activity of DDX3X and the helicase activity of DDX1, which is another human member of the DEAD-box family.

Compound	SI (Selectivity Index)
CCCCc1cn(-c2ccc(NC(=O)Nc3ccccc3C)cc2)nn1 [Compound 1, reference compound]	>666
CC(C)CCc1cn(-c2ccc(NC(=O)Nc3cccc4cnccc34)cn2)nn1 [Compound 10, 1-(6-(4-Isopentyl-1H-1,2,3-triazol-1-yl)pyridin-3-yl)-3-(isoquinolin-5-yl)urea]	>1000

Results, then the compound that gave them:

SI (Selectivity Index)	Compound
>250	CCCCc1cn(-c2ccc(NC(=O)Nc3ccccc3C(F)(F)F)cc2)nn1 [BA103, 1-(4-(4-Butyl-1H-1,2,3-triazol-1-yl)phenyl)-3-(2-(trifluoromethyl)phenyl)urea]
418	CCCCc1nnc(-c2ccc(NC(=O)Nc3ccccc3C(F)(F)F)cc2)[nH]1 [Compound 4, 1-(4-(5-Butyl-4H-1,2,4-triazol-3-yl)phenyl)-3-(2-(trifluoromethyl)phenyl)urea]

same assay, conditions: helicase activity of DDX1; read-out: DDX1 IC50 ± SD

Compound	IC50
CCCCc1cn(-c2ccc(NC(=O)Nc3ccccc3C)cc2)nn1 [Compound 1, reference compound]	> 200 µM
CC(C)CCc1cn(-c2ccc(NC(=O)Nc3cccc4cnccc34)cn2)nn1 [Compound 10, 1-(6-(4-Isopentyl-1H-1,2,3-triazol-1-yl)pyridin-3-yl)-3-(isoquinolin-5-yl)urea]	> 100 µM

Second part, the compound after the results:

IC50	Compound
> 100 µM	CCCCc1cn(-c2ccc(NC(=O)Nc3ccccc3C(F)(F)F)cc2)nn1 [BA103, 1-(4-(4-Butyl-1H-1,2,3-triazol-1-yl)phenyl)-3-(2-(trifluoromethyl)phenyl)urea]
29.3 ± 16.8 µM	CCCCc1nnc(-c2ccc(NC(=O)Nc3ccccc3C(F)(F)F)cc2)[nH]1 [Compound 4, 1-(4-(5-Butyl-4H-1,2,4-triazol-3-yl)phenyl)-3-(2-(trifluoromethyl)phenyl)urea]

system: not listed separately; assay: Parallel artificial membrane permeability assay (PAMPA); format: in vitro ADME; conditions: not given
Protocol: Preliminary in vitro ADME analysis was performed to early evaluate the pharmacokinetic (PK) profile of our compounds (Figure 8). Aqueous solubility was calculated by LC-MS-MS analysis. An aliquot of 1 mg of compound was stirred for 24 h at 27 °C in 1 mL of water. The mixture was filtered, and the quantity of solubilized compound was determined. Passive permeability was determined using parallel artificial membrane permeability assay (PAMPA). Microsomal metabolic stability was determined by LC-UV-MS analysis by incubating compounds with human liver microsomes at 37 °C for 60 min (for details, see the Supporting Information).
Chemicals. All solvents, reagents, were from Sigma-Aldrich Srl (Milan, Italy). Dodecane was purchased from Fluka (Milan, Italy). Pooled Male Donors 20 mg mL-1 HLM were from BD Gentest-Biosciences (San Jose, California). Milli-Q quality water (Millipore, Milford, MA, USA) was used. Hydrophobic filter plates (MultiScreen-IP, Clear Plates, 0.45 μm diameter pore size), 96-well microplates, and 96-well UV-transparent microplates were obtained from Millipore (Bedford, MA, USA). […]
Parallel Artificial Membrane Permeability Assay (PAMPA):
Donor solution (0.5 mM) was prepared by diluting 1 mM dimethylsulfoxide (DMSO) compound stock solution using phosphate buffer (pH 7.4, 0.025 M). Filters were coated with 5 μL of a 1% (w/v) dodecane solution of phosphatidylcholine prepared from CHCl3 solution 10% w/v, for intestinal permeability. Donor solution (150 μL) was added to each well of the filter plate. To each well of the acceptor plate were added 300 μL of solution (50% DMSO in phosphate buffer). All compounds were tested in three different plates on different days. The sandwich was incubated for 5 h at room temperature under gentle shaking. After the incubation time, the plates were separated, and samples were taken from both receiver and donor sides and analyzed using LC with UV detection at 280 nm.
LC analysis were performed with a Varian Prostar HPLC system (Varian Analytical Instruments, USA) equipped with a binary pump with a manual injection valve and model Prostar 325 UV-VIS Detector.
Chromatographic separation were conducted using a Polaris C18-A column (150-4.6 mm, 5 μm particle size) at a flow rate of 0.8 mL min-1 with a mobile phase composed of 60% ACN/40% H2O.
Permeability (Papp) for PAMPA was calculated according to the following equation, obtained from Wohnsland and Faller and Sugano et al. equation with some modification in order to obtain permeability […]
where VA is the volume in the acceptor well, VD is the volume in the donor well (cm3), A is the “effective area” of the membrane (cm2), t is the incubation time (s) and r the ratio between drug concentration in the acceptor and equilibrium concentration of the drug in the total volume (VD+VA). Drug concentration is estimated by using the peak area integration.
Membrane retentions (%) were calculated according to the following equation: […]
where r is the ratio between drug concentration in the acceptor and equilibrium concentration, D, A, and Eq represented drug concentration in the donor, acceptor and equilibrium solution, respectively. […]
15 min. The flow rate was 0.2 mL min-1 and injection volume was 5 μL. The instrument operated in positive mode and parameters were: detector 1850 V, drying gas pressure 25.0 psi, desolvation temperature 300.0 °C, nebulizing gas 40.0 psi, needle 5000 V and shield 600 V. Nitrogen was used as nebulizer gas and drying gas.
Collision induced dissociation was performed using Argon as the collision gas at a pressure of 1.8 mTorr in […]
Microsomal Stability Assay.
Each compound in DMSO solution was incubated at 37 °C for 60 min in 125 mM phosphate buffer (pH 7.4), 5 μL of human liver microsomal protein (0.2 mg mL-1), in the presence of a NADPH-generating system at a final […]
reaction was stopped by cooling on ice and adding 1.0 mL of acetonitrile. The reaction mixtures were then centrifuged, and the parent drug and metabolites were subsequently determined by LC-UV-MS. […]

Compound	AppP (apparent permeability)	Memb. Ret. % (membrane retention)
CCCCc1cn(-c2ccc(NC(=O)Nc3ccccc3C)cc2)nn1 [Compound 1, reference compound]	28.6 nm/s	19.1%
CCCCc1nnc(-c2ccc(NC(=O)Nc3ccccc3C(F)(F)F)cc2)o1 [Compound 3, 1-(4-(5-Butyl-1,3,4-oxadiazol-2-yl)phenyl)-3-(2-(trifluoromethyl)phenyl)urea]	good values of passive permeability	10.3%
CC(C)CCc1cn(-c2ccc(NC(=O)Nc3cccc4cnccc34)cn2)nn1 [Compound 10, 1-(6-(4-Isopentyl-1H-1,2,3-triazol-1-yl)pyridin-3-yl)-3-(isoquinolin-5-yl)urea]	–	11.3%

Further lines, results first:

AppP (apparent permeability)	Memb. Ret. % (membrane retention)	Compound
good values of passive permeability	23.9%	CCCCc1cn(-c2ccc(NC(=O)Nc3ccccc3C(F)(F)F)cc2)nn1 [BA103, 1-(4-(4-Butyl-1H-1,2,3-triazol-1-yl)phenyl)-3-(2-(trifluoromethyl)phenyl)urea]
very low passive permeability	2.3%	CCCCc1nnc(-c2ccc(NC(=O)Nc3ccccc3C(F)(F)F)cc2)[nH]1 [Compound 4, 1-(4-(5-Butyl-4H-1,2,4-triazol-3-yl)phenyl)-3-(2-(trifluoromethyl)phenyl)urea]
good values of passive permeability	21.6%	CCCCn1nnc(-c2ccc(NC(=O)Nc3ccccc3C(F)(F)F)cc2)n1 [Compound 6, 1-(4-(2-Butyl-2H-tetrazol-5-yl)phenyl)-3-(2-(trifluoromethyl)phenyl)urea]

same assay, conditions: pH 7.4, read-out: AppP (apparent permeability)

Compound	Papp at 5 h, 0.5 mM
CCCCc1nnc(-c2ccc(NC(=O)Nc3ccccc3C(F)(F)F)cc2)o1 [Compound 3, 1-(4-(5-Butyl-1,3,4-oxadiazol-2-yl)phenyl)-3-(2-(trifluoromethyl)phenyl)urea]	97.5 nm/s
CC(C)CCc1cn(-c2ccc(NC(=O)Nc3cccc4cnccc34)cn2)nn1 [Compound 10, 1-(6-(4-Isopentyl-1H-1,2,3-triazol-1-yl)pyridin-3-yl)-3-(isoquinolin-5-yl)urea]	12.1 nm/s

The next lines start with the values.

Papp at 5 h, 0.5 mM	Compound
74.7 nm/s	CCCCc1cn(-c2ccc(NC(=O)Nc3ccccc3C(F)(F)F)cc2)nn1 [BA103, 1-(4-(4-Butyl-1H-1,2,3-triazol-1-yl)phenyl)-3-(2-(trifluoromethyl)phenyl)urea]
< 1 nm/s	CCCCc1nnc(-c2ccc(NC(=O)Nc3ccccc3C(F)(F)F)cc2)[nH]1 [Compound 4, 1-(4-(5-Butyl-4H-1,2,4-triazol-3-yl)phenyl)-3-(2-(trifluoromethyl)phenyl)urea]
102 nm/s	CCCCn1nnc(-c2ccc(NC(=O)Nc3ccccc3C(F)(F)F)cc2)n1 [Compound 6, 1-(4-(2-Butyl-2H-tetrazol-5-yl)phenyl)-3-(2-(trifluoromethyl)phenyl)urea]
